Experimental findings from ChEMBL document CHEMBL5244279, “Perspectives on SARS-CoV-2 Main Protease Inhibitors” (J Med Chem, 2021) are described below.

The term IC50 denotes the concentration needed to halve the response being measured. In general, Ki refers to the dissociation constant of the complex between target and ligand, obtained from inhibition or displacement. The term CC50 denotes the concentration that lowers cell viability or growth by half. One may read the EC50 as the concentration needed to bring the measured effect to its halfway point. As usually defined, the half-life is the time needed for the level to fall by half in the phase considered. The term clearance denotes the rate of elimination divided by the concentration. Usually AUC stands for the area under the concentration-time curve, a measure of exposure. What is called MRT is a mean duration of stay, worked out from the concentration-time curve. As usually defined, the bioavailability is the share of a dose that reaches the circulation, judged against a reference dose that is usually intravenous.

Data set [1] deals with T1, Replicase polyprotein 1ab (Severe acute respiratory syndrome coronavirus 2, UniProt P0DTD1). Briefly: Inhibition of N-terminal MBP-tagged SARS CoV-2 Main protease by fluorescence based analysis.
Data set [2] is described as follows: Inhibition of SARS CoV N-terminal his-tagged Main protease using Dabcyl-KTSAVLQSGFRKME-Edan peptide as substrate by fluorescence based analysis. Also on record: species or system Severe acute respiratory syndrome-related coronavirus.
Data set [3] is described as follows: Binding affinity to SARS CoV Main protease incubated for 20 mins by reverse-phase HPLC analysis. Also on record: species or system Severe acute respiratory syndrome-related coronavirus.
Data set [4] can be described thus: Inhibition of SARS CoV Main protease using MCA-AVLQSGFR-Lys(DNP)-Lys-NH2 peptide as substrate by fluorescence based analysis. Also on record: species or system Severe acute respiratory syndrome-related coronavirus.
The nature of data set [5]: Cytotoxicity against human Huh-7 cells assessed as reduction of cell viability. The format is toxicity, cell-based.
Data set [6] is described as follows: Cytotoxicity against mouse L929 cells assessed as reduction of cell viability. The format is toxicity, cell-based.
Data set [7] can be described thus: Cytotoxicity against cat CRFK cells assessed as reduction of cell viability. The format is toxicity, cell-based, Felis catus.
Data set [8] can be described thus: Cytotoxicity against African green monkey Vero E6 cells assessed as reduction of cell viability by CellTiterGlo assay. The settings on record: chlorocebus sabaeus. The format is toxicity, cell-based, Vero C1008. (ATP-based viability assays read luminescence as a measure of living cells.)
Data set [9] is described as follows: Inhibition of SARS CoV Main protease using Dabcyl-KTSAVLQSGFRKM-E(Edans)-NH2 peptide as substrate by FRET assay. Also on record: species or system Severe acute respiratory syndrome-related coronavirus.
In data set [10] the test system is SARS-CoV. Briefly: Antiviral activity against SARS CoV infected in human Calu-3 cells assessed as reduction in viral RNA replication by qPCR analysis. The data set is classed as functional, organism-based. Conditions: Severe acute respiratory syndrome-related coronavirus.
The target in data set [11] is T1, Replicase polyprotein 1ab. Briefly: Inhibition of SARS CoV-2 Main protease using MCA-AVLQSGFR-Lys(DNP)-Lys-NH2 peptide as substrate by fluorescence based analysis.
Data set [12] is described as follows: Inhibition of SARS CoV Main protease using 2-aminobenzoyl-SVTLQSG-Tyr(NO2)-R peptide as substrate by FRET assay. Also on record: species or system Severe acute respiratory syndrome-related coronavirus.
The nature of data set [13]: Half life in Sprague-Dawley rat at 10 mg/kg, iv measured upto 24 hrs by LC-MS/MS analysis. The settings on record: in vivo. The format is ADME, organism-based.
Data set [14] is described as follows: Half life in Beagle dog at 5 mg/kg, iv measured upto 24 hrs by LC-MS/MS analysis. The data set is classed as ADME, organism-based, Canis lupus familiaris. Conditions: in vivo.
Data set [15] can be described thus: Clearance in Sprague-Dawley rat at 10 mg/kg, iv measured upto 24 hrs by LC-MS/MS analysis. The data set is classed as ADME, organism-based. The settings on record: in vivo.
The nature of data set [16]: AUC in Sprague-Dawley rat at 10 mg/kg, iv measured upto 24 hrs by LC-MS/MS analysis. The format is ADME, organism-based. Also on record: time < 24 hrs, dose 10 mg/kg, route iv. Conditions: in vivo.
Data set [17] is described as follows: AUC in Beagle dog at 5 mg/kg, iv measured upto 24 hrs by LC-MS/MS analysis. The data set is classed as ADME, organism-based, Canis lupus familiaris. Also on record: time < 24 hrs, dose 5 mg/kg, route iv. Conditions: in vivo.
Data set [18] can be described thus: Clearance in Beagle dog at 5 mg/kg, iv measured upto 24 hrs by LC-MS/MS analysis. Conditions: in vivo. The format is ADME, organism-based, Canis lupus familiaris.
Data set [19] in a line: Cytotoxicity against African green monkey Vero E6 cells assessed as reduction of cell viability by CCK8 assay. The data set is classed as toxicity, cell-based, Vero C1008. The settings on record: chlorocebus sabaeus. On the technique in general: Formazan colour is commonly taken as a measure of viable cells.
The nature of data set [20]: Binding affinity to SARS CoV Main protease incubated for 10 mins by FRET assay. Also on record: species or system Severe acute respiratory syndrome-related coronavirus.
The test system of data set [21] is SARS-CoV. Briefly: microbe, parasite or virus in culture. The settings on record: Severe acute respiratory syndrome-related coronavirus, Vero C1008, 48 h.
Data set [22] in a line: Binding affinity to SARS CoV N-terminal his-tagged Main protease using Dabcyl-KTSAVLQSGFRKME-Edan peptide as substrate by fluorescence based analysis. Also noted: species or system Severe acute respiratory syndrome-related coronavirus.
Data set [23] in a line: Mean residence time in mouse at 20 mg/kg, sc. The data set is classed as ADME, organism-based. Conditions: in vivo.
Data set [24] in a line: Half life in mouse at 20 mg/kg, sc. Conditions: in vivo. The format is ADME, organism-based.
The nature of data set [25]: Drug concentration in mouse lung at 20 mg/kg, sc. The format is ADME, organism-based. The settings on record: in vivo.
Data set [26] can be described thus: Cytotoxicity against human HCT-8 cells assessed as reduction in cell viability by neutral red uptake assay. The format is toxicity, cell-based.
The nature of data set [27]: Oral bioavailability in Sprague-Dawley rat. Conditions: in vivo. The data set is classed as ADME, organism-based.
Another data set deals with SARS-CoV-2. The format is functional, organism-based, Vero E6. Conditions: Severe acute respiratory syndrome coronavirus 2, strain 107, Vero C1008.
The nature of data set [28]: Cytotoxicity against human Caco-2 cells assessed as reduction in cell viability by neutral red uptake assay. The format is toxicity, cell-based.
Data set [29] is described as follows: Cytotoxicity against dog MDCK cells assessed as reduction in cell viability by neutral red uptake assay. The data set is classed as toxicity, cell-based, Canis lupus familiaris.
A short description of data set [30]: Cytotoxicity against human A549 cells assessed as reduction in cell viability by neutral red uptake assay. The format is toxicity, cell-based.
Data set [31] can be described thus: Cytotoxicity against African green monkey Vero cells assessed as reduction in cell viability by neutral red uptake assay. The data set is classed as toxicity, cell-based. Conditions: chlorocebus sabaeus.

A value given as a limit tells only on which side of the number the result lay.

In the case of `Cc1cc(S(=O)(=O)c2c([N+](=O)[O-])cc(C(F)(F)F)cc2[N+](=O)[O-])c(Cl)cc1Cl`, in [1], 300 nM corresponded to half-maximal inhibition (IC50).
Take `O=C(Oc1ccc(S(=O)(=O)c2ccc(OC(=O)C(Cl)=C(Cl)Cl)cc2)cc1)C(Cl)=C(Cl)Cl`: half-maximal inhibition in data set [2] (IC50) required 900 nM.
`CCOC(=O)/C=C/[C@H](C[C@@H]1CCNC1=O)NC(=O)[C@H](CC(C)C)NC(=O)[C@@H](NC(=O)OCc1ccccc1)C(C)C` gave an inhibitory constant (Ki) in data set [3] of 520 nM. The molecule also gave an IC50 in data set [4] of 9100 nM.
Turning to `CC(C)C[C@H](NC(=O)OCc1ccccc1)C(=O)N[C@@H](C[C@@H]1CCNC1=O)C(O)S(=O)(=O)O` (stereo partly specified), the CC50 in data set [5], in data set [6], in data set [7] and in data set [8] was over 200000 nM in each case.
`O=C(/C=C/c1ccccc1)N[C@@H](CC1CCCCC1)C(=O)N[C@@H](C[C@@H]1CCNC1=O)C(=O)C(=O)NCc1ccccc1` displayed an IC50 in [9] of 710 nM. For the same molecule, the EC50 with SARS-CoV [10] was 1400 nM.
In turn, `O=C(/C=C/c1ccccc1)N[C@@H](CC1CC1)C(=O)N[C@@H](C[C@@H]1CCNC1=O)C(=O)C(=O)NCc1ccccc1` registered a half-inhibitory concentration (IC50) in [9] of 240 nM. The concentration giving a half-maximal response (EC50) in the data set on SARS-CoV [10] was found to be 1900 nM.
Turning to `CC(C)[C@H](NC(=O)[C@H](C)NC(=O)OCc1ccccc1)C(=O)N[C@@H](Cc1ccccc1)[C@@H](O)[C@H](O)[C@H](Cc1ccccc1)NC(=O)[C@@H](NC(=O)[C@H](C)NC(=O)OCc1ccccc1)C(C)C`, affinity in data set [2] was put at a Ki of 600 nM.
Molecule `CC(C)C[C@H](NC(=O)/C=C/c1ccccc1)C(=O)N[C@@H](C[C@@H]1CCNC1=O)C(=O)C(=O)NCc1ccccc1` displayed a half-inhibitory concentration (IC50) in data set [9] of 330 nM. For the same molecule, in the data set on SARS-CoV [10], the EC50 was 7200 nM.
As for `O=C(Oc1cncc(Cl)c1)c1cccs1`, the IC50 in [11] is 81 nM; in data set [12], 500 nM.
With `O=C[C@H](C[C@@H]1CCNC1=O)NC(=O)[C@H](Cc1cccc(F)c1)NC(=O)c1cc2ccccc2[nH]1`, the half-life in [13] is 7.6 h; in data set [14], 5.5 h. The 50% cytotoxic concentration (CC50) in data set [5], in data set [6], in [7] and in [8] was over 100000 nM each time. Also, the figures for the clearance in data set [15] and in data set [18] were 4.01 mL/min and 5.8 mL/min, respectively. In addition, the area under the curve (AUC) at 24 h in data set [16] amounted to 41500 ng·h/mL; in data set [17], 14900 ng·h/mL.
As to `O=C[C@H](C[C@@H]1CCNC1=O)NC(=O)[C@H](CC1CCCCC1)NC(=O)c1cc2ccccc2[nH]1`, the cytotoxic concentration (CC50) in data set [5], in data set [6], in [7] and in data set [8] was over 100000 nM in each case.
With `C[C@@H](OC(C)(C)C)[C@H](NC(=O)OCc1ccccc1)C(=O)N[C@@H](CC1CCCCC1)C(=O)N[C@H](C=O)C[C@@H]1CCNC1=O`, the CC50 in [19] is over 200000 nM. In [20], this molecule had an inhibitory constant (Ki) of 53 nM. Moreover, a half-maximal effect with SARS-CoV [21] (EC50) was put at 600 nM.
In data set [2], `O=C(On1nnc2ccccc21)c1ccc2[nH]ccc2c1` registered an IC50 of 200 nM. In data set [22], the inhibition constant Ki amounted to 7.5 nM.
As for `CC(C)(C)OC(=O)Nc1cccn([C@@H](CC2CC2)C(=O)N[C@@H](C[C@@H]2CCNC2=O)C(=O)C(=O)NCc2ccccc2)c1=O`, in data set [9], the IC50 is 900 nM. This molecule gave a mean residence time MRT in data set [23] of 2.7 h. Besides, the half-life in data set [24] is 1.8 h. The same molecule returned a Ct in data set [25] of 13 ng/g.
With `CC(C)C[C@H](NC(=O)OCC1CCC(F)(F)CC1)C(=O)N[C@@H](C[C@@H]1CCNC1=O)C(O)S(=O)(=O)O` (stereo partly specified), the CC50 in [5], in data set [6], in [26] and in data set [7] was over 100000 nM in each case.
For the molecule `CC1(C)[C@@H]2[C@@H](C(=O)N[C@H](C=O)C[C@@H]3CCNC3=O)N(C(=O)COc3ccc(OC(F)(F)F)cc3)C[C@@H]21`, the bioavailability in data set [27] stood at 14.6%. This molecule also returned an EC50 with SARS-CoV-2 of 860 nM.
`CCC[C@H](NC(=O)[C@H](CC(C)C)NC(=O)OCc1ccccc1)C(=O)C(=O)NCc1ccccn1`: the CC50 in [28], in [29], in [30] and in [31] was over 100000 nM in each case.
Consider `Nc1ccccc1C(=O)On1nnc2ccccc21`, for which the affinity in data set [22], expressed as Ki, was 19.5 nM.
